Results as given in patent US3980794A, “Method for promoting growth of poultry with 3-(5-nitro-2-imidazolyl)pyrazoles” (Eli Lilly and Company, priority 1975, dated 1976).
In brackets after ≈: the same amount, converted by molar mass. Read-outs that look alike come from different tables or passages of the source.

Assays:
[1] = system: Bacteroides fragilis sp. vulgatus 1211; assay: Susceptibility of anaerobic bacteria, agar dilution; format: cell-based; details: 24 h, read-out: 24 Hr. Minimum Inhibitory Concentration
[2] = system: Peptococcus anaerobius 1428; assay: as above; format: cell-based; details: 24 h, read-out: 24 Hr. Minimum Inhibitory Concentration
[3] = system: Clostridium perfringens 81; assay: microbe, parasite or virus in culture; format: cell-based; details: Clostridium perfringens, 81, 24 h, read-out: 24 Hr. Minimum Inhibitory Concentration
[4] = system: Bacteroides fragilis sp. thetaiotaomicron 1438; assay: Susceptibility of anaerobic bacteria, agar dilution; format: cell-based; details: 24 h, read-out: 24 Hr. Minimum Inhibitory Concentration
Actinomyces bovis 13684 = assay: as above; format: cell-based; details: read-out: 24 Hr. Minimum Inhibitory Concentration
[5] = system: Veillonella alcalescens 1; assay: as above; format: cell-based; details: read-out: 24 Hr. Minimum Inhibitory Concentration
[6] = system: Propionibacterium acnes 79; assay: as above; format: cell-based; details: read-out: 24 Hr. Minimum Inhibitory Concentration
[7] = system: Propionibacterium acnes 44; assay: as above; format: cell-based; details: read-out: 24 Hr. Minimum Inhibitory Concentration
[8] = system: Bacteroides fragilis sp. fragilis 1936B; assay: as above; format: cell-based; details: 24 h, read-out: 24 Hr. Minimum Inhibitory Concentration
[9] = system: Clostridium septicum bovine; assay: as above; format: cell-based; details: 24 h, read-out: 24 Hr. Minimum Inhibitory Concentration
Method: (§1) The susceptibility of anaerobic bacteria, both gram positive and gram negative, to a representative number of the novel compounds of this application was determined using the agar dilution method. The bacteria used were isolated from patients hospitalized at the Indiana University Medical Center. The isolates were identified in the anaerobe laboratory of the Medical Center by the criteria established by Dowell et al., Laboratory Methods in Anaerobic Bacteriology. Public Health Serv. Publ. No. 1803 (1968) [Center for Disease Control, Atlanta, Ga.]; and by Smith et al., The Pathogenic Anaerobic Bacteria, pages 96-136 (1968) [Charles C. Thomas, Publisher, Springfield, Ill.]. All the organisms were maintained in chopped meat glucose medium (Scott Labs) at room temperature.
(§2) The method used for the agar dilution tests was based on the studies of Sutter et al., Antimicrob. Ag. Chemother. 3, 188-193 (1973). The strains of anaerobic bacteria were grown in 16 × 120 mm. tubes for 16 to 18 hours in Thioglycolate medium without indicator--135C (Becton, Dickinson and Co.), to which was added 5 mcg. of hemin per milliliter prior to autoclaving, plus 1 mg. of sodium bicarbonate and 0.1 mcg. of filter-sterilized menadione per milliliter after autoclaving. The growth tubes for the bacteria Veillonella alcalescens were additionally supplemented with 5 mg. of sodium lactate per milliliter. The strains were adjusted to the turbidity of the No. 1 McFarland standard in Thioglycolate medium without indicator--135C containing an additional 0.13 percent Bacto-agar (Difco). Each strain was then applied to the surface of the petri plate (100 mm. × 15 mm.) by means of a replicator.
(§3) For the agar dilution studies, two-fold dilutions of the test compounds were prepared in deionized water to which was then added laked sheep blood and filter-sterilized menadione so the concentrations after the agar dilution were 5 percent and 10 mcg./ml. respectively. An equal volume of double strength Brucella agar (Becton, Dickinson and Co.) was mixed with each dilution in a water bath held at 50°C. and then poured onto the petri plates.
(§4) All of the procedures were done inside a plastic glove box, except for the incubation of the growth tubes and the pouring of the plates. After the plates hardened, they were put inside the glove box for a minimum of two hours before they were inoculated. Generally, the glove box procedures of Aranki et al., Applied Microbiology 17, 568-576 (1969), were followed, but the following modifications were used. Dry materials were introduced into the glove box by evacuating the lock to 28 inches of mercury and filling once with nitrogen gas, followed by evacuating in the same manner and filling with an 80 percent nitrogen plus 10 percent CO2 plus 10 percent hydrogen gas mixture. Liquid media and agar plates were introduced into the glove box by evacuating the lock to 10 inches of mercury and filling with gas four times. The nitrogen gas was used to fill the lock for the first two cycles of evacuation, with the gas mixture described above used for the final two fillings.
(§5) All the plates were incubated at 37°C. in Gas Pak jars (Becton, Dickinson and Co.) containing palladium-coated alumina catalysts (reactivated after each use). The results of the agar dilution tests were read after about 24 hours of incubation. The minimum inhibitory concentration (MIC) was recorded as the lowest concentration of test compound at which there was no growth.
(§6) The results of these in vitro tests are recorded in Charts 11 and 12 which follow. The test compounds are identified in the same manner as in the previous experiments. The antibiotics cephalothin and erythromycin were also run simultaneously with the novel compounds of this application, for comparison purposes, and the results are included in Charts 11 and 12 below.

[10] = system: Clostridium septicum 1128; assay: as above; format: cell-based; details: 24 h, read-out: 24 Hr. Minimum Inhibitory Concentration
Method: as §1, §2, §3, §4, §5, §6

[11] = system: Eubacterium aerofaciens 1235; assay: as above; format: cell-based; details: read-out: 24 Hr. Minimum Inhibitory Concentration
[12] = system: Bacteroides fragilis sp. vulgatus 1563; assay: as above; format: cell-based; details: 24 h, read-out: 24 Hr. Minimum Inhibitory Concentration
[13] = system: Fusobacterium necrophorum 13859; assay: as above; format: cell-based; details: read-out: 24 Hr. Minimum Inhibitory Concentration
[14] = system: Bacteroides fragilis sp. fragilis 1877; assay: as above; format: cell-based; details: 24 h, read-out: 24 Hr. Minimum Inhibitory Concentration
Salmonella typhimurium = assay: Control of infections caused by Salmonella typhimurium in chickens, subcutaneous (Experiment 2); format: in vivo; details: Salmonella enterica, sc, 144 h, 6 days, read-out: Survival Ratio (converted); for responders at 15 mg/kg: 15 mg./kg. subcutaneous; for responders at 30 mg/kg: 30 mg./kg. subcutaneous; for responders at 60 mg/kg: 60 mg./kg. subcutaneous
Method: The efficacy of the novel compounds in the control of infections caused by Salmonella typhimurium in chickens was evaluated in the following manner.
The test was carried out using day-old chicks weighing approximately 35 g. each. The chicks were divided into groups of 5 chicks per each dosage level. A portion of the chicks received the test compound which was suspended in 0.2 ml. of polyethylene glycol 200 and administered subcutanusly in the neck. […] All the chicks were challenged with a 1:200 dilution of a culture of the organism, 0.1 ml. of the dilution being injected into each chick in the leg intramuscularly. […] The test compounds are identified in the same manner as set forth in Experiment 1.
In the chart, column 1 lists the compounds tested; column 2, the dosage of test compound in mg./kg.; and column 3, the survival ratio.

Clostridium ramosum 1313 = assay: Susceptibility of anaerobic bacteria, agar dilution; format: cell-based; details: read-out: 24 Hr. Minimum Inhibitory Concentration
[15] = system: Clostridium innocuum 1373; assay: as above; format: cell-based; details: read-out: 24 Hr. Minimum Inhibitory Concentration
[16] = system: Peptostreptococcus intermedius 1264; assay: as above; format: cell-based; details: read-out: 24 Hr. Minimum Inhibitory Concentration
[17] = system: Fusobacterium symbiosum 1470; assay: as above; format: cell-based; details: read-out: 24 Hr. Minimum Inhibitory Concentration
[18] = Veillonella parvula, 24 h, Veillonella alcalescens 1
[19] = Cutibacterium acnes, 24 h, Propionibacterium acnes 44
[20] = Thomasclavelia ramosa, 24 h, Clostridium ramosum 1313
[21] = 24 h, Peptostreptococcus intermedius 1264
[22] = Collinsella aerofaciens, 1235, 24 h
[23] = Fusobacterium necrophorum, 13859, 24 h
[24] = Thomasclavelia ramosa, 1313, 24 h
[25] = [Clostridium] innocuum, 1373, 24 h

| SMILES | MIC [3] [µg/mL] | MIC [5, 18] [µg/mL] | MIC [7, 19] [µg/mL] | MIC [9] [µg/mL] | MIC [10] [µg/mL] | MIC [16, 21] [µg/mL] | MIC ([1]; Bacteroides fragilis) [µg/mL] | MIC [2] [µg/mL] | MIC ([4]; Bacteroides fragilis) [µg/mL] | MIC (Actinomyces bovis 13684; Actinomyces bovis, 13684, 24 h) [µg/mL] | MIC ([5]; Veillonella parvula, 1, 24 h) [µg/mL] | MIC ([6]; Cutibacterium acnes, 79, 24 h) [µg/mL] | MIC ([8]; Bacteroides fragilis) [µg/mL] | MIC [11, 22] [µg/mL] | MIC ([12]; Bacteroides fragilis) [µg/mL] | MIC [13, 23] [µg/mL] | MIC ([14]; Bacteroides fragilis) [µg/mL] | MIC (Clostridium ramosum 1313; [24]) [µg/mL] | MIC [15, 25] [µg/mL] | MIC ([17]; Fusobacterium, 1470, 24 h) [µg/mL] | further results |
| --- | --- | --- | --- | --- | --- | --- | --- | --- | --- | --- | --- | --- | --- | --- | --- | --- | --- | --- | --- | --- | --- |
| CC(=O)Nc1c(C#N)c(-c2ncc([N+](=O)[O-])n2C)nn1C [Compound 8, N-[4-cyano-1-methyl-3-(1-methyl-5-nitro-2-imidazolyl)pyrazol-5-yl]acetamide] | 1 (≈ 3.46 µM) | 0.03 (≈ 0.104 µM) | > 8 | 1 (≈ 3.46 µM) | 0.25 (≈ 0.864 µM) | 4 (≈ 13.8 µM) | – | – | – | – | – | – | – | – | – | – | – | – | – | – | MIC ([1]; Bacteroides fragilis sp. vulgatus 1211): 0.25 µg/mL (≈ 0.864 µM); MIC ([2]; Peptococcus anaerobius 1428): 1 µg/mL (≈ 3.46 µM); MIC ([4]; Bacteroides fragilis sp. thetaiotaomicron 1438): 0.5 µg/mL (≈ 1.73 µM); MIC (Actinomyces bovis 13684; 24 h, Actinomyces bovis 13684): 4 µg/mL (≈ 13.8 µM); MIC ([6]; Cutibacterium acnes, 24 h, Propionibacterium acnes 79): 0.03 µg/mL (≈ 0.104 µM); MIC ([8]; Bacteroides fragilis sp. fragilis 1936B): 0.25 µg/mL (≈ 0.864 µM); MIC ([11]; Collinsella aerofaciens, 24 h, Eubacterium aerofaciens 1235): 0.125 µg/mL (≈ 0.432 µM); MIC ([12]; Bacteroides fragilis sp. vulgatus 1563): 0.25 µg/mL (≈ 0.864 µM); MIC ([13]; 24 h, Fusobacterium necrophorum 13859): 0.06 µg/mL (≈ 0.207 µM); MIC ([14]; Bacteroides fragilis sp. fragilis 1877): 0.25 µg/mL (≈ 0.864 µM); responders at 15 mg/kg (Salmonella typhimurium): 0%; responders at 30 mg/kg (Salmonella typhimurium): 20%; responders at 60 mg/kg (Salmonella typhimurium): 60%; MIC (Clostridium ramosum 1313; [20]): 0.25 µg/mL (≈ 0.864 µM); MIC ([15]; 24 h, Clostridium innocuum 1373): 1 µg/mL (≈ 3.46 µM); MIC ([17]; 24 h, Fusobacterium symbiosum 1470): 0.03 µg/mL (≈ 0.104 µM) |
| Cn1c([N+](=O)[O-])cnc1-c1nn(CCO)c(N)c1C#N [Compound 14, 5-Amino-1-(2-hydroxyethyl)-3-(1-methyl-5-nitro-2-imidazolyl)pyrazole-4-carbonitrile] | < 0.125 | – | > 32 | < 0.125 | < 0.125 | 1 (≈ 3.61 µM) | < 0.125 | < 0.125 | < 0.125 | < 0.125 | < 0.125 | < 0.125 | < 0.125 | < 0.125 | < 0.125 | < 0.125 | < 0.125 | < 0.125 | < 0.125 | < 0.125 | responders at 7.5 mg/kg (Salmonella typhimurium; 7.5 mg./kg. subcutaneous): 20%; responders at 15 mg/kg (Salmonella typhimurium): 6.67%; responders at 30 mg/kg (Salmonella typhimurium): 40%; responders at 60 mg/kg (Salmonella typhimurium): 93.3% |
| CNNC=Nc1c(C#N)c(-c2ncc([N+](=O)[O-])n2C)nn1C [Compound 21, N-[4-Cyano-1-methyl-3-(1-methyl-5-nitroimidazol-2-yl)pyrazol-5-yl]formimidic acid, 2-methyl hydrazide] | < 0.125 | – | 32 (≈ 106 µM) | < 0.125 | < 0.125 | 0.5 (≈ 1.65 µM) | < 0.125 | < 0.125 | < 0.125 | < 0.125 | < 0.125 | < 0.125 | < 0.125 | < 0.125 | < 0.125 | < 0.125 | < 0.125 | < 0.125 | < 0.125 | < 0.125 | – |
| CCCn1nc(-c2ncc([N+](=O)[O-])n2C)c(C#N)c1N [Compound 22, 5-Amino-1-(n-propyl)-3-(1-methyl-5-nitro-2-imidazolyl)pyrazole-4-carbonitrile] | < 0.125 | – | > 32 | < 0.125 | < 0.125 | 1 (≈ 3.63 µM) | < 0.125 | < 0.125 | < 0.125 | < 0.125 | < 0.125 | < 0.125 | < 0.125 | < 0.125 | < 0.125 | < 0.125 | < 0.125 | < 0.125 | < 0.125 | < 0.125 | – |
| CC[C@H]1OC(=O)[C@H](C)[C@@H](O[C@H]2C[C@@](C)(OC)[C@@H](O)[C@H](C)O2)[C@H](C)[C@@H](O[C@@H]2O[C@H](C)C[C@H](N(C)C)[C@H]2O)[C@](C)(O)C[C@@H](C)C(=O)[C@H](C)[C@@H](O)[C@]1(C)O [Erythromycin, erythromycin, reference compound] | < 0.5 | 1 (≈ 1.36 µM) | – | < 0.5 | 1 (≈ 1.36 µM) | – | 2 (≈ 2.73 µM) | 1 (≈ 1.36 µM) | 4 (≈ 5.45 µM) | 1 (≈ 1.36 µM) | – | < 0.5 | 4 (≈ 5.45 µM) | 1 (≈ 1.36 µM) | 2 (≈ 2.73 µM) | 2 (≈ 2.73 µM) | 4 (≈ 5.45 µM) | – | > 128 | < 0.5 | MIC ([7]; Cutibacterium acnes, 44, 24 h): < 0.5 µg/mL; MIC (Clostridium ramosum 1313; [20]): > 128 µg/mL; MIC ([16]; Peptostreptococcus, 1264, 24 h): 8 µg/mL (≈ 10.9 µM) |
